Series [1] has as its system PE/CA PJ15 cells. Kind of series: Cytotoxicity test, MTT method. The note with it: 15 microM, +48 hours from administration. It is filed as cell-based. On the procedure: FIG. 4 (a, b, c). Cytotoxicity tests according to the MTT method (see protocols) performed on the three peptides: 1932 (SEQ ID NO 1); 2733 (SEQ ID NO 2) and 1413 (SEQ ID NO 3), and at three concentrations of […] at +24 and +48 hours from administration. There were used concentrations near (5 microM) to, or greater (15, 50 microM) than those used in the ex-vivo and in vitro tests, where average concentration of the three peptides is of about 3.65 microM. Cells used are a tumour cell line denominated PE/CA PJ15. Positive control (denoted in the legends by ctrl+), used at a sublethal concentration of 10 microM, is a commercial proapoptotic peptide, Catalog #62206 (Anaspec-USA).
Treated cells were subjected to MTT assay at +24 and +48 hours from peptide inoculation. […] After a 3-hour incubation at 38° C., formazan crystals were solubilized with HCl solution in isopropanol (0.04 N, 200 μl) and the stained solution was measured by a microplate reader (Packard Spectracount™, Packard BioScience Company, Meriden U.S.A.) with a 570 nm filter. […] In the MTT citotoxicity test at +24 and +48 hours, averages of the values obtained by photometer reading of the data related to tested peptides were compared. […]

Series [2] has as its system PE/CA PJ15 cells. Kind of series: Cytotoxicity test, Neutral Red Uptake (NRU) method. Type of series: cell-based. The note with it: 50 microM, +24 and +48 hours from administration. The method, then: FIG. 3 (a, b, c). Cytotoxicity tests according to Neutral Red Uptake (NRU) method, performed on the three peptides: 1932 (SEQ ID NO 1), 2733 (SEQ ID NO 2) and 1413 (SEQ ID NO 3), at the two concentrations of 5 and 50 microM at +24 and +48 hours from administration. Therefore, concentrations near (5 microM) to or markedly higher (50 microM) than those employed for carrying out the ex-vivo and in vitro tests were used. Cells used are a tumour cell line denominated PE/CA PJ15. Positive control (denoted in the legends by ctrl+), used at a sublethal concentration of 10 microM, is a commercial proapoptotic peptide, Catalog #62206 (Anaspec-USA).
Treated cells were subjected to MTT assay at +24 and +48 hours from peptide inoculation. […] After a 3-hour incubation at 38° C., formazan crystals were solubilized with HCl solution in isopropanol (0.04 N, 200 μl) and the stained solution was measured by a microplate reader (Packard Spectracount™, Packard BioScience Company, Meriden U.S.A.) with a 570 nm filter. […] In the MTT citotoxicity test at +24 and +48 hours, averages of the values obtained by photometer reading of the data related to tested peptides were compared. […] From a determination of the amount of Neutral Red retained in the cells exposed thereto (in comparison with the control) the relative toxicity of the chemical substances at issue can be assessed. […]

For the next series, the system named is HIV-1. The note with it: for influence on the expression level of Ag p24: subfragments containing the GGNK sequence.
Series [3] is described as follows: Isoelectric point (Ip) of the peptides. Type of series: physicochemical.
The subject of another series is HIV strain BaL. The series is described as follows: In vitro exogenous infection of healthy-donor PBMCs with HIV strain BaL, p24 ELISA. The settings on record: at 12 days, 10 microg/ml, regardless of protocol, FIG. 2. In general terms: ELISA stands for enzyme-linked immunosorbent assay.
Another series concerns HIV strain IIIB. The series is described as follows: In vitro exogenous infection of healthy-donor PBMCs with HIV strain IIIB, p24 ELISA.
The subject of a further series is HIV. Kind of series: Peptide stability, duration of effect on HIV replication in in vitro assays. Type of series: cell-based. The method, then: Current drugs in use for the therapy against HIV infections and AIDS, like e.g. the HAART mixture, are administered in daily doses, whereas the action of the peptides of SEQ ID NO 1, 2, and 3 in in vitro assays highlights a duration of the effect on HIV replication of at least four days.
The effect was verified in two in vitro experimental protocols envisaging: • a treatment of the cells with the virus (adsorption phase), washing, inoculation of the peptide in culture and analysis of viral replication over time; • exposure of the cells to the peptide, adsorption of the cells to the virus, washing, and analysis of viral replication over time.

A further series deals with HIV-1 R5. The settings on record: ex vivo.

Read-outs that look alike come from different tables or passages of the source. Ends that are not written are not given here.

This note sets out measurements from US20140038884A1, “ANTIVIRAL PEPTIDES” (priority 2011, published 2014).

In the case of GPPPQGGNKPQGPPPPGKPQ [peptide 1932], the “toxicity with respect to the control (MTT)” value in the series with PE/CA PJ15 cells [1] is on record as “slightly toxic with respect to the control”. Also, the “toxicity with respect to the control (NRU)” value with PE/CA PJ15 cells [2] was “slightly more toxic with respect to the control”.

For the substance “APPGARPPPGPPPPGPPPPGP (listed as Sus sp.) [Peptide 4, Peptide of porcine origin]”, the “activities A) HIV-1 activation ex vivo, B) inhibitory activity, C)” value in the series on HIV-1 is “do not exhibit any of the activities listed at A), B) and C)”. The “Ip (isoelectric point)” value in series [3] turned out to be 9.79.

Turning to “GPPPQGGNKPQGPPPPG (listed as Homo sapiens) [Peptide 1a]”, in the series on HIV-1, the “activities A) HIV-1 activation ex vivo, B) inhibitory activity, C)” value was “exhibit none of the activities listed in points A), B) and C)”; the “influence on the expression level of Ag p24” value (“influence” below) is on record as “in no way influences the expression level of Ag p24”. Besides, in series [3], the “Ip (isoelectric point)” value came to 8.75.

For the substance “GPPPQGGNKPQ (listed as Homo sapiens) [Peptide 1b]”, in the series with HIV-1, the “activities A) HIV-1 activation ex vivo, B) inhibitory activity, C)” value was “exhibit none of the activities listed in points A), B) and C)”; the “influence” value is “in no way influences the expression level of Ag p24”. Moreover, the “Ip (isoelectric point)” value in series [3] worked out at 8.75.

Turning to “GPPPQGGN (listed as Homo sapiens) [Peptide 1d]”, in the series on HIV-1, the “activities A) HIV-1 activation ex vivo, B) inhibitory activity, C)” value was “do not exhibit any of the activities listed at A), B) and C)”. Further, the “Ip (isoelectric point)” value in series [3] came out at 5.52.

As for “DKPKKKPPPPAGPPPPPPPPPGPPPPGP [peptide 2733]”, in the series with PE/CA PJ15 cells [2], the “toxicity with respect to the control (NRU)” value is “slightly more toxic with respect to the control”.

In the case of “APPGARPLPGPPPPGPPPPGP (listed as Sus sp.) [Peptide 7, Peptide of porcine origin]”, in the series with HIV-1, the “activities A) HIV-1 activation ex vivo, B) inhibitory activity, C)” value was “do not exhibit any of the activities listed at A), B) and C)”. The “Ip (isoelectric point)” value in series [3] was 9.79.

As to “RSPFFDL (listed as Sus sp.) [Peptide 5, Peptide of porcine origin]”, the “activities A) HIV-1 activation ex vivo, B) inhibitory activity, C)” value in the series on HIV-1 was “do not exhibit any of the activities listed at A), B) and C)”. Also, in series [3], the “Ip (isoelectric point)” value amounted to 5.84.

“GPPPQGGNKPQGPPPG (listed as Homo sapiens) [Peptide 1c]”: in the series with HIV-1, the “activities A) HIV-1 activation ex vivo, B) inhibitory activity, C)” value is “exhibit none of the activities listed in points A), B) and C)”; the “influence” value is listed as “in no way influences the expression level of Ag p24”. The “Ip (isoelectric point)” value in series [3] is recorded as 8.75.

Consider “APPGARPPPPPPPPADQPQQGP (Sus sp) [Peptide 6, Peptide of porcine origin]”, for which, in the series on HIV-1, the “activities A) HIV-1 activation ex vivo, B) inhibitory activity, C)” value was “do not exhibit any of the activities listed at A), B) and C)”. The “Ip (isoelectric point)” value in series [3] was 5.88.

Regarding “GPPPPGKPQ (listed as Homo sapiens) [Peptide 1e]”, the “activities A) HIV-1 activation ex vivo, B) inhibitory activity, C)” value in the series on HIV-1 is “do not exhibit any of the activities listed at A), B) and C)”. Besides, the “Ip (isoelectric point)” value in series [3] came out at 8.75.

As to “RPPPGPPPPGPPPGP-OH [peptide 1413, RPPPGPPPPGPPPGP]”, the “inhibition of viral replication” value is given as “effective in inhibiting viral replication” in the series on HIV strain BaL and “relevant effect of inhibition of viral replication” with HIV strain IIIB (+8 days of culture, 10 μg/ml). In the series with HIV-1 (versus Con1 of U.S. Pat. No. 5,981,720, no direct comparison), the “inhibitory activity relative to Con1” value came to 130 times. Also, in the series on HIV strain IIIB (peptide 10 microg/ml, FIG. 1), the “virus replication over the time considered (p24 antigen)” value is “almost equal to zero”. Further, the “persistence of inhibitory effect” value with HIV strain IIIB (until day 12, FIG. 1) is reported as “remained unaltered until day 12”. For the same substance, in series [3], the “Ip (isoelectric point)” value is reported as 9.75. Besides, the “duration of the effect on HIV replication” value in the series with HIV is listed as “at least four”. For the same substance, the p24 values in the series on HIV-1 R5 (after 5 days of culture, control cells 76 picograms/ml) turned out to be 191 picograms/ml; in the series on HIV-1 R5 (day 10, control cells 79 picograms/ml) it was 67 pg/mL.
